Assay results published in US6187559A, “Phospholipase D gene” (Novartis AG, priority 1998, dated 2001).

System: PLD (phospholipase D)
Test: Assay for PLD activity (release of 3H choline from radiolabeled PC)
Type: biochemical
Details: substrate [methyl-3H] choline dipalmitoyl PC; PLDT buffer (20 mM Tris-HCl pH 7.0, 1.0 mM EDTA, 0.05% Triton X-100), 37° C.
Description: The PLD assay measured the release of ^3 H choline from radiolabeled PC (Steed et al. (1996) Biochemistry 35:5229-5237). Product was separated from substrate by partitioning into water from a chloroform:methanol extraction. ^3 H PC substrate was prepared by drying stock (in methanol) with argon and re-dissolving into minimal volumes of methanol (2-10 μl). After dilution with a buffer of 20 mM Tris-HCl, pH 7.0, 1.0 mM EDTA and 0.05% Triton X-100 (PLDT buffer) to a 5× concentration, the substrate was sonicated for 30 sec and used immediately. The assay was performed with 1.0 μM [methyl-^3 H] choline L-a-PC dipalmitoyl phosphatidylcholine (0.1 μCi/assay) and enzyme with PLDT buffer added to a final volume of 50 μl using polypropylene tubes. Since the estimated Km is greater than 1 μM, PC is limiting in this assay. Unfortunately, the solubility constraints of the lipid substrate preclude the use of higher PC concentrations. […] The radioactivity in the aqueous phase (200 μl) was counted in either a Beckman LS 3801 (Beckman Instruments Columbia Md.) or Wallac 1450 Microbeta Plus (Wallac Inc., Gaithersburg Md.) liquid scintillation counter after the addition of scintillant. […] The material was assayed using transphosphatidylation to butanol and ethanol to verify that PLD activity is being measured. […]

## CCCCCCCCCCCCCCCC(=O)OC[C@H](COP(=O)([O-])OCC[N+](C)(C)C)OC(=O)CCCCCCCCCCCCCCC [PC, dipalmitoyl phosphatidylcholine]
  estimated Km: greater than 1 μM
